Data reported in article PMC8305768, “Design, Synthesis and Antiparasitic Evaluation of Click Phospholipids” (Molecules, 2021).
Where a name gives a salt, the structure may show the parent alone.

Columns and labels:
[1] = test system: T. cruzi Y strain intracellular amastigotes; assay: Activity against T. cruzi Y strain intracellular amastigotes (HG39 cell-line, parasite load); format: cell-based; conditions: Trypanosoma cruzi, read-out: Parassite Load Reduction (%)
Description: T. cruzi epimastigotes (Y strain) were obtained by axenic cultivation in the LIT medium, supplemented with 10% FBS (Cultilab, São Paulo, Brazil). Cultures were maintained at […] for 4–5 days until they reached the log growth phase. New cultures were made every 4 days from the initial inoculum of 2 × 10^6 parasites/mL. T. cruzi trypomastigotes (Y strain) were maintained in culture by the infection of LLC-MK2 (ATTC-CCL7) epithelial cells. This cell line was cultured in […] tissue culture bottles (TPP) in RPMI 1640 medium (Gibco), (Thermo Fischer Scientific, Carlsbad, CA, USA) supplemented with 10% FBS (Gibco) (Thermo Fischer Scientific, Carlsbad, CA, USA). Cultures were maintained at 37 °C under 5% CO2 atmosphere, and RPMI 1640 medium and SFB were exchanged every 48 h. After confluence, the cultures were treated with 1 mL of a mixture of trypsin and versene (Sigma, São Paulo, Brazil) (0.2 and 0.002%, respectively). After 24 h, a subconfluence culture was infected with the trypomastigotes in the approximate proportion of 10:1 parasites/cell. From five to seven days post infection, the trypomastigote stage was obtained from the culture supernatant. Alternatively (Figure 2), T. cruzi strain Y was maintained as previously described.

[2] = Cytotoxicity against THP-1 macrophages (MTT); format: cell-based; conditions: human, PMA-differentiated THP-1 macrophages, read-out: Toxicity CC50 ± SD Or CC50 Interval Estimation
Description: The effect of compounds selected compounds on THP-1-derived macrophages was assessed by the colorimetric MTT assay (3-(4,5-dimethylthiazol-2-yl)-2,5-diphenyl tetrazolium bromide). Briefly, 1 × 10^5 THP-1 cells/mL were differentiated into macrophages by addition of 20 ng/mL of phorbol-myristate 13-acetate (PMA, Sigma, Saint Louis, MI, USA) for 18 h, followed by replacement with fresh medium for 24 h. Cells were incubated with 100 µL of compounds ranging from 100 to 1 µM after dilution in the RPMI complete medium containing a maximum amount of 1% DMSO. After incubation for 72 h, the medium was removed and 100 µL of 0.5 mg/mL MTT solution diluted in RPMI was added. Plates were incubated for an additional 4 h to allow viable cells to convert MTT into a purple formazan product. Solubilization of formazan crystals was achieved by the addition of 2-propanol and absorbance was read at 570 nm using a Synergy 2 Multi-Mode Reader (Biotek, Winooski, VT, USA). Cytotoxicity was evaluated by the determination of the CC50 value (drug concentration that reduced the percentage of viable cells in 50%) and calculated by non-linear regression analysis using GraphPad Prism version 8.1.1 for Windows (GraphPad Software, San Diego, CA, USA).

[3] = target: T1, CYP1A2 (Homo sapiens, UniProt P05177); assay: Cytochrome P450 inhibition assay (P450-Glo) CYP1A2; format: in vitro ADME; conditions: compounds 10 μM; miltefosine 10 μM or 1 μM
T1 construct: purchased Corning Inc; host or cells: baculovirus-infected insect cells
T1 sequence (P05177 2-516 limits assumed): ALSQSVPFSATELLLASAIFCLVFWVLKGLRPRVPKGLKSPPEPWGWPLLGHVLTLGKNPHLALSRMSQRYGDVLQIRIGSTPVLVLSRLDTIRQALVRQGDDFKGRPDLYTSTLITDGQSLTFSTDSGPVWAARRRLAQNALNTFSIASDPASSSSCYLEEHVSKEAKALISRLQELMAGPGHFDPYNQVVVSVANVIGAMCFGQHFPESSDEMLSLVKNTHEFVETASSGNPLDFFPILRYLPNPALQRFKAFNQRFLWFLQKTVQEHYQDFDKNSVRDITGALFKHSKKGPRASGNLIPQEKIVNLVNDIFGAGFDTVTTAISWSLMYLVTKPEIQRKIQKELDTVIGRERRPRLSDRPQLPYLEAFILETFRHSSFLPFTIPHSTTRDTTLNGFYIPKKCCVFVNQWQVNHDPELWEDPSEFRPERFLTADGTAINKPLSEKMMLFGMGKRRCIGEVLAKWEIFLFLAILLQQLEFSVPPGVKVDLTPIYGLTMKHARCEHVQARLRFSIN
Excerpt: Cytochrome (CYP) P450 inhibition assay: These assays made use of microsomal preparations of CYP450 (1A2, 2C9, 2C19, 2D6 and 3A4) from baculovirus-infected insect cells (Corning Inc., Corning, NY, USA) and cytochrome c reductase (and cytochrome b5 for CYP450 3A4). For detection of CYP450 activity, the luminescence-based P450-Glo (Promega Corp., Madison, WI, USA) assay system was used that contained a luminogenic CYP450 substrate, lyophilized luciferin detection reagent and reconstitution buffer. The substrates were luciferin derivatives of CYP450-specific substrates that produce (4S)-4,5-dihydro-2-(6-hydroxybenzothiazolyl)-4-thiazolecarboxylic acid (D-luciferin) after cleavage by CYP450 (CYP450 3A4, luciferin-IPA; CYP450 2C19, luciferin-H EGE; CYP450 2C9, luciferin-H; CYP450 2D6, luciferin-ME EGE; CYP450 1A2, luciferin-1A2). CYP450 reactions were initiated by addition of the NADPH regeneration system to the enzyme–substrate mixture with the luciferin detection reagent stopping the reaction and the D-luciferin being converted to oxyluciferin under the production of light being proportional to the CYP450 activity. The CYP450 assays were performed using the Tecan Fluent liquid-handling automation platform (Tecan Group Ltd., Mannedorf, Switzerland) in the 384-well assay format. Compounds were added into an empty 384-well plate (100 nL/well in 1% v/v DMSO) using the Echo 550 Liquid Handler followed by the addition of 5 μL/well of the CYP450/substrate mixture and incubation for 30 min at 37 °C, after which the reaction was initiated by the addition of the 5 μL/well NADPH regeneration system. After a further 30-min incubation at 37 °C, the CYP450 reaction was stopped and the luciferase reaction was simultaneously initiated by addition of 10 μL/well of luciferin detection reagent, followed by an additional 30-min incubation at 37 °C. The luminescence signal was detected using an Infinite M1000 PRO plate reader (Tecan Group Ltd., Mannedorf, Switzerland). The NCs yielded 0% inhibition (1% v/v DMSO) and standard CYP450 specific inhibitors were used as positive controls, yielding 100% inhibition (CYP450 1A2, alpha-naphthoflavone; CYP450 2C9, sulfaphenazole; CYP450 2C19, troglitazone; CYP450 2D6, quinidine; CYP450 3A4, ketoconazole).
Data analysis: The screening data were obtained in triplicate and analysed using ActivityBase (IDBS, Guildford, UK), and outlier elimination in the control wells was performed using the 3-sigma method. Unless stated, dose–response experiments were performed in the 11-point format with the IC50 value, Hill slope, minimum signal and maximum signal for each dose–response curve obtained using a four-parameter logistic fit in the XE module of ActivityBase (IDBS).

Row | SMILES | inhibition of growth at 10 µM [1] | CC50 at 72 h [2] | % inhibition ± SD at 10 μΜ CYP1A2 [3]
1 | C[N+](C)(C)CCOP(=O)([O-])OCCCCCn1cc(CCCCCCCCN)nn1 [Compound 35, 5-(4-(8-aminooctyl)-1H-1,2,3-triazol-1-yl)pentyl (2-(trimethylammonio)ethyl) phosphate inner salt] | 0% | > 100 µM | 9.42%
2 | CCCCCCCCCCc1cc(CCCCCCCCCCOP(=O)([O-])OCC[N+](C)(C)C)no1 [Compound 41, 10-(5-decylisoxazol-3-yl)decyl (2-(trimethylammonio)ethyl) phosphate inner salt] | 63.3% | 12.5 to 25 µM | 10.86%
3 | CCCCCCCc1nnc(CCCCCCCCCCOP(=O)([O-])OCC[N+](C)(C)C)o1 [Compound 65, 10-(5-heptyl-1,3,4-oxadiazol-2-yl)decyl (2-(trimethylammonio)ethyl) phosphate inner salt] | 92.2% | 12.5 to 25 µM | 18.05%
4 | C[N+](C)(C)CCOP(=O)([O-])OCCCCCn1cc(CCCCCCCCNC(=O)OCc2ccccc2)nn1 [Compound 31, 5-(4-(8-(((benzyloxy)carbonyl)amino)octyl)-1H-1,2,3-triazol-1-yl)pentyl (2-(trimethylammonio)ethyl) phosphate inner salt] | 0% | > 100 µM | 13.80%
5 | CCCCCCCCCCCc1nnc(CCCCCCCCCCOP(=O)([O-])OCC[N+](C)(C)C)o1 [Compound 66, 2-(trimethylammonio)ethyl (10-(5-undecyl-1,3,4-oxadiazol-2-yl)decyl) phosphate inner salt] | 69.7% | 25 to 50 µM | 12.37%
6 | C[N+](C)(C)CCOP(=O)([O-])OCCCCCCCCCCCn1cc(CC2CCCCC2)nn1 [Compound 29, 11-(4-(cyclohexylmethyl)-1H-1,2,3-triazol-1-yl)undecyl (2-(trimethylammonio)ethyl) phosphate inner salt] | 69.9% | > 100 µM | –28.56%
7 | C[N+](C)(C)CCOP(=O)([O-])OCCCCCCCCCCCn1cc(CCCCCCCCNC(=O)OCc2ccccc2)nn1 [Compound 32, 11-(4-(8-(((benzyloxy)carbonyl)amino)octyl)-1H-1,2,3-triazol-1-yl)undecyl (2-(trimethylammonio)ethyl) phosphate inner salt] | 0% | > 100 µM | 12.02%
8 | CCCCCc1cn(CCCCCCCCCCCOP(=O)([O-])OCC[N+](C)(C)C)nn1 [Compound 25, 11-(4-pentyl-1H-1,2,3-triazol-1-yl)undecyl (2-(trimethylammonio)ethyl) phosphate inner salt] | 66.2% | > 100 µM | –20.41%
9 | C[N+](C)(C)CCOP(=O)([O-])OCCCCCCCCCCCn1cc(CC2CCCC2)nn1 [Compound 28, 11-(4-(cyclopentylmethyl)-1H-1,2,3-triazol-1-yl)undecyl (2-(trimethylammo nio)ethyl) phosphate inner salt] | 58.3% | > 100 µM | –13.84%
10 | C[N+](C)(C)CCCOP(=O)([O-])OCCCCCCCCCCCn1cc(CC2CCCCC2)nn1 [Compound 33, 11-(4-(cyclohexylmethyl)-1H-1,2,3-triazol-1-yl)undecyl (3-(trimethylammonio)propyl) phosphate inner salt] | 0% | > 10 µM | 15.23%
11 | CCCCCCCCCCCCCCCCOP(=O)([O-])OCC[N+](C)(C)C [Miltefosine, hexadecylphosphocholine, reference compound] | 71.9% | 15.9 ± 1.2 µM | –20.62%
12 | CCCCCCCCc1noc(CCCCCOP(=O)([O-])OCC[N+](C)(C)C)n1 [Compound 53, 5-(3-octyl-1,2,4-oxadiazol-5-yl)pentyl (2-(trimethylammonio)ethyl) phosphate inner salt] | 44.5% | 12.5 to 25 µM | 20.03%
13 | CCCCCCCCc1noc(CCCCCCCCCCOP(=O)([O-])OCC[N+](C)(C)C)n1 [Compound 54, 10-(3-octyl-1,2,4-oxadiazol-5-yl)decyl (2-(trimethylammonio)ethyl) phosphate inner salt] | 90.5% | > 10 µM | 9.37%
14 | C[N+](C)(C)CCOP(=O)([O-])OCCCCCCCCCCCn1cc(CCCCCCCCC(=O)O)nn1 [Compound 34, 11-(4-(8-carboxyoctyl)-1H-1,2,3-triazol-1-yl)undecyl (2-(trimethylammonio)ethyl) phosphate inner salt] | 0% | 50 to 100 µM | –3.73%
